Measurements published in patent US20260092179A1, “GENETICALLY MODIFIED HOST CELLS PRODUCING VIOLACEIN, ANALOGUES, AND DERIVATIVES THEREOF” (OCTARINE BIO APS, priority 2022, published 2026).

How the values were obtained:
Assay type in all cases: physicochemical
[1] = Stability during laundering of dyed fabrics (colour fastness, ΔE); details: washed at 30° c.
Protocol: (§1) In order to assess the stability and colour fastness of violacein and violacein derivatives dyed onto fabrics, dyed fabrics were subjected to a number of conditions. Fabrics were dyed according to Example 18 and colour coordinates and colour change before and after exposure to a given condition were determined as described in Example 18. To measure temperature stability, fabrics were incubated in an oven set to 80° c. for 4 h. To measure stability under acid and alkaline conditions, fabrics were fully submerged in water solutions set to pH 8 with NaOH and pH 5 with HCl and incubated at room temperature for 30 minutes. Fabrics were then incubated at 37° c. for 4 h. To measure stability during laundering, fabrics were washed at 30° c. under the “mix” setting of a Siemens IQ300 washing machine, then dried in a Siemens IQ300 dryer until dry. To measure artificial light stability, fabrics were placed under an LED lamp at room temperature for 16 h. To measure UV light stability, fabrics were placed under a UV lamp at room temperature for 1 h.

[2] = Artificial light stability of dyed fabrics (colour fastness, ΔE); details: for ΔE: before vs after LED lamp, room temperature, 16 h
Protocol: as §1

[3] = Temperature stability of dyed fabrics (colour fastness, ΔE); details: oven 80° c. for 4 h; for ΔE: before and after the stability test
Protocol: as §1

[4] = Acrylic, after test (LED lamp, room temperature, 16 h)
[5] = Bleached cotton, after test (LED lamp, room temperature, 16 h)
[6] = Diacetate, after test (LED lamp, room temperature, 16 h)
[7] = Nylon 6,6, after test (LED lamp, room temperature, 16 h)
[8] = Polyester, after test (LED lamp, room temperature, 16 h)
[9] = Wool, after test (LED lamp, room temperature, 16 h)

## O=C1NC(c2c[nH]c3ccccc23)=C/C1=C1\C(=O)Nc2ccccc21 [deoxyviolacein]
[1]; Acrylic, After test
  L: 69.42
  a: −1.13
  b: 0.45
[1]; Acrylic, Before test
  L: 60.9
  a: 0.39
  b: −2.66
[1]; Acrylic, before and after the stability test
  ΔE: 9.20
[1]; Bleached cotton, After test
  L: 69.57
  a: 0.39
  b: −5.93
[1]; Bleached cotton, Before test
  L: 61.14
  a: 0.73
  b: −8.03
[1]; Bleached cotton, before and after the stability test
  ΔE: 8.69
[1]; Diacetate, After test
  L: 54.82
  a: 10.32
  b: −14.22
[1]; Diacetate, Before test
  L: 50.89
  a: 9.08
  b: −15.27
[1]; Diacetate, before and after the stability test
  ΔE: 4.25
[1]; Nylon 6,6, After test
  L: 47.79
  a: 6.03
  b: −20.63
[1]; Nylon 6,6, Before test
  L: 44.46
  a: 6.19
  b: −22.02
[1]; Nylon 6,6, before and after the stability test
  ΔE: 3.61
[1]; Polyester, After test
  L: 74.17
  a: −0.99
  b: −0.58
[1]; Polyester, Before test
  L: 64.92
  a: 1.08
  b: −5.1
[1]; Polyester, before and after the stability test
  ΔE: 10.50
[1]; Wool, After test
  L: 72.9
  a: −0.9
  b: 3.2
[1]; Wool, Before test
  L: 63.37
  a: −0.25
  b: −1.82
[1]; Wool, before and after the stability test
  ΔE: 10.79
[2]; [4]
  L: 64.84
  a: 0.76
  b: 2.12
[2]; Acrylic, before test
  L: 60.52
  a: 1.59
  b: −2.77
[2]; Acrylic
  ΔE: 6.58
[2]; [5]
  L: 62.47
  a: 2
  b: −6.81
[2]; Bleached cotton, before test
  L: 60.49
  a: 0.97
  b: −7.49
[2]; Bleached cotton
  ΔE: 2.33
[2]; [6]
  L: 49.82
  a: 9.13
  b: −9.9
[2]; Diacetate, before test
  L: 47.05
  a: 13.99
  b: −17.37
[2]; Diacetate
  ΔE: 9.33
[2]; [7]
  L: 46.23
  a: 5.57
  b: −18.4
[2]; Nylon 6,6, before test
  L: 43.65
  a: 5.57
  b: −20.95
[2]; Nylon 6,6
  ΔE: 3.63
[2]; [8]
  L: 70.32
  a: 0.28
  b: 2.09
[2]; Polyester, before test
  L: 64.39
  a: 1.76
  b: −4.83
[2]; Polyester
  ΔE: 9.23
[2]; [9]
  L: 69.63
  a: 0.44
  b: 3.2
[2]; Wool, before test
  L: 64.28
  a: −0.4
  b: −0.37
[2]; Wool
  ΔE: 6.49
[3]; Acrylic, After test
  L: 59.66
  a: 0.86
  b: −2.82
[3]; Acrylic, Before test
  L: 59.1
  a: 1.55
  b: −1.29
[3]; Acrylic
  ΔE: 1.77
[3]; Bleached cotton, After test
  L: 63.74
  a: 2.09
  b: −8.13
[3]; Bleached cotton, Before test
  L: 63.16
  a: 1.56
  b: −7.66
[3]; Bleached cotton
  ΔE: 0.92
[3]; Diacetate, After test
  L: 51.96
  a: 10.78
  b: −13.7
[3]; Diacetate, Before test
  L: 51.65
  a: 10.65
  b: −14.56
[3]; Diacetate
  ΔE: 0.92
[3]; Nylon 6,6, After test
  L: 45.2
  a: 6.79
  b: −21.25
[3]; Nylon 6,6, Before test
  L: 44.99
  a: 6.18
  b: −21.43
[3]; Nylon 6,6
  ΔE: 0.67
[3]; Polyester, After test
  L: 65.03
  a: 2.08
  b: −2.03
[3]; Polyester, Before test
  L: 64.62
  a: 1.61
  b: −2.79
[3]; Polyester
  ΔE: 0.98
[3]; Wool, After test
  L: 66.12
  a: 1.93
  b: −0.48
[3]; Wool, Before test
  L: 66.67
  a: −0.09
  b: −0.62
[3]; Wool
  ΔE: 2.10
